Laboratory results published in patent publication US20050202549A1, “Crystal structure” (Pfizer Inc, priority 2001, published 2005).

Columns and labels:
[1] = biological target: T1, wild-type PDE5 catalytic domain (Homo sapiens, UniProt O76074); assay: X-ray structure of wild-type PDE5 catalytic domain complexed with Sildenafil; conditions: X-ray structure of wild-type PDE5 complex; binding in the active site, blocking access for the cGMP substrate
T1 construct: Construction and Expression of PDE5 Wild-type Catalytic Domain (E534-N875); made in house; host or cells: baculovirus / insect cells (pFastbac1; Sf-9 for virus stocks, T.ni High5 named for expression)

[2] = biological target: T2, PDE5* (loop-swapped PDE5 catalytic domain) (Homo sapiens, UniProt O76074, C677D/E669N/H670S/H678E/I665L/I680V/INS676N/L675M/M681L/N661S/P671E/Q666I/Q674L/R658P/R667N/S663Q/S668T/Y664F); assay: Soaking of inhibitor into C2 crystal form of PDE5* and X-ray structure determination; assay type: binding
T2 construct: Construction and Expression of PDE5* (E534-E858) in E. coli; made in house; host or cells: E. coli BL21 (DE3), pET21C
Protocol: Plate-shaped crystals of apo PDE5* obtained according to methods detailed in EXAMPLE 6 were transferred to a 20 μl drop of 0.1M sodium HEPES and 20% Polyethylene glycol 4000 in square microbridges. To this, 1.0 μl of a 20 mg/ml concentration of inhibitor dissolved in DMSO was added. Crystals were then transferred to a solution of 0.1M sodium HEPES pH 7.4, 20% Polyethylene glycol 4000 with 15% glycerol and then frozen during X-ray data collection.
X-ray diffraction data were collected with an RaxisIV image plate detector on an in-house FR-D rotating anode (Rigaku), with Osmic mirrors (MSC). All data were processed using the HKL package (Otwinowski & Minor, 1997).
Refinement was carried out in the resolution range 30-1.5 Å using CNX (Brünger et al., 1998) with the “mlf” maximum likelihood target function. Partial structure factors from a flat bulk-solvent model and anisotropic B-factor correction were supplied throughout the refinement.

(fo-fc) electron density map at the active site region ([2]; PDE5* C2 crystal soaked with ligand, map contoured at 2.5σ, phases prior to incorporation of ligand)	mode of inhibition ([2]; X-ray structure of PDE5* complex, binding in the active site, blocking access for the cGMP substrate)	Structure (SMILES)	mode of inhibition [1]
–	–	CCCc1nn(C)c2c(=O)[nH]c(-c3cc(S(=O)(=O)N4CCN(C)CC4)ccc3OCC)nc12 [Sildenafil, 5-[2-ethoxy-5-(4-methyl-1-piperazinylsulphonyl)phenyl]-1-methyl-3-n-propyl-1,6-dihydro-7H-pyrazolo[4,3-d]pyrimidin-7-one]	competitive
clearly featured peak	competitive	CCCc1nn(C)c2c(=O)[nH]c(-c3ccccc3OCC)nc12 [UK-088,800, 5-(2-ethoxyphenyl)-1-methyl-3-propyl-1,6-dihydro-7H-pyrazolo[4,3-d]pyrimidin-7-one]	–
